Assay results taken from patent US8137919B2 (Montefiore Medical Center, priority 2008, dated 2012).

Tests used:
Type in all cases: cell-based
[1] = tested on: LIM2405, HCT15, and HCT116 (cetuximab resistant cell lines); assay: Proliferative response to EGF, S-phase; conditions: 24 h post EGF treatment (0.5 ng/ml), serum-free
Experimental: (§1) For each cell line, one plate was harvested for determination of t=0 absorbance values. Viable cells were determined 72 h post-treatment using the MTT assay by measurement of absorbance at 570 nm. The relative rate of cell growth for each cell line was factored into the analysis by subtracting the absorbance at time zero from both the control and treatment groups. All the experiments were replicated a minimum of 3 times. For determination of sensitivity to EGF, cells were serum starved for 4 h then treated with 0, 0.5 or 5 ng/ml EGF for 24-72 h.
(§2) To test this, the proliferative response of the 3 most cetuximab-sensitive and 3 most cetuximab-resistant cell lines to exogenous EGF-treatment was examined under serum-free conditions (FIG. 6). […] These findings indicate that a subset of colon tumors exist that are dependent upon ligand activation of EGFR for their growth, and it is these cell lines that are growth inhibited by blockade of ligand binding to the EGFR.

[2] = tested on: GEO, LIM1215, and SW403 (cetuximab sensitive cell lines); assay: Proliferative response to EGF, S-phase; conditions: 24 h post EGF treatment (0.5 ng/ml), serum-free
Experimental: as §1, §2

[3] = tested on: cetuximab sensitive and resistant cell lines; assay: Growth response to EGF, MTT assay; conditions: 0.5 or 5 ng/ml EGF
Experimental: Cell growth was assayed by MTT assay. Values shown are mean±SEM from a representative experiment, #p<0.05. Experiments were repeated 3 separate times.
as §1

[4] = tested on: SW403 cells; assay: Apoptosis, PI staining and FACS; conditions: 5 microMolar, 72 hours treatment
Experimental: FIG. 4. […] Cell cycle distribution and apoptosis was assessed by PI staining and FACS analysis. Values shown are mean±SEM, n=3, #P<0.05.

Row | Compound | change in S-phase [1] | change in S-phase [2] | cell growth (MTT) [3] | apoptosis [4]
1 | EGF: EGFR activator, EGFR ligand | not | significant increase | preferentially increased growth of the cetuximab sensitive cell lines | –
2 | O=c1[nH]cc(F)c(=O)[nH]1 [5FU, 5-fluoruracil] | – | – | – | approximately 50%
